Molecular target: T1, GST-RIPK1 (recombinant GST-RIPK1 kinase domain (residues 1-327)) (Homo sapiens, UniProt Q13546)
T1 construct: recombinant GST-RIPK1 kinase domain (residues 1-327) enzyme produced from baculovirus-transfected Sf21 cells; host or cells: baculovirus-transfected Sf21 insect cells
T1 sequence (Q13546 1-327): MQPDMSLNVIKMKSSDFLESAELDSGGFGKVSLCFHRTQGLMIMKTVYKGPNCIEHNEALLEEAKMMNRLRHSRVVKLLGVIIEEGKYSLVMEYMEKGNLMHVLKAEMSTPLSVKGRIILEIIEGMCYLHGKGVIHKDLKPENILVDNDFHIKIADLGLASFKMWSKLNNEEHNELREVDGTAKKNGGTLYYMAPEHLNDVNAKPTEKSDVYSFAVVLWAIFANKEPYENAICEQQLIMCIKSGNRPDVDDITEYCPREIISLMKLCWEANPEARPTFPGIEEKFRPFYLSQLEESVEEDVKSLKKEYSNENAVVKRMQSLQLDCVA
Test: RIPK1-ADP-Glo Enzymatic Assay
Format: biochemical
Settings: ten-point titration, top compound concentration of 100000 nM; 25 nM GST-RIPK1, 300 μM ATP, 3 μM dephosphorylated-MBP; 30 min pre-incubation, 150 min reaction
Method: RIPK1-ADP-Glo Enzymatic Assay
The enzymatic activity of RIPK1 is measured using an assay derived from ADP-Glo kit (TMPromega), which provides a luminescent-based ADP detection system. Specifically, the ADP generated by RIPK1 kinase is proportionally detected as luminescent signals in a homogenous fashion. In this context, the assessment of the inhibitory effect of small molecules (EC50) is measured by the effectiveness of the compounds to inhibit the ATP to ADP conversion by RIPK1.
In this assay, the potency (EC50) of each compound was determined from a ten-point (1:3 serial dilution; top compound concentration of 100000 nM) titration curve using the following outlined procedure. To each well of a white ProxiPlus 384 well-plate, 30 nL of compound (1% DMSO in final assay volume of 3 μL) was dispensed, followed by the addition of 2 μL of 1× assay buffer (25 mM Hepes 7.3, 20 mM MgCl2, 50 mM NaCl, 1 mM DTT, 0.005% Tween20, and 0.02% BSA) containing 37.5 nM of GST-RIPK1 (recombinant GST-RIPK1 kinase domain (residues 1-327) enzyme produced from baculovirus-transfected Sf21 cells: MW=62 kDa). Plates were placed in an ambient temperature humidified chamber for a 30 minutes pre-incubation with compound. Subsequently, each reaction was initiated by the addition of 1 μL 1× assay buffer containing 900 μM ATP and 3 μM dephosphorylated-MBP substrate. The final reaction in each well of 3 μL consists of 25 nM of GST-RIPK1, 300 μM ATP, and 3 μM dephosphorylated-MBP. Kinase reactions were allowed to proceed for 150 minutes prior to adding ADP-Glo reagents per Promega's outlined kit protocol. Dose-response curves were generated by plotting percent effect (% product conversion; Y-axis) vs. Log 10 compound concentrations (X-axis). EC50 values were calculated using a non-linear regression, four-parameters sigmoidal dose-response model.

| Compound | EC50 [nM] |
| --- | --- |
| N#Cc1ccc(OC2CC3(C2)O[C@@H]2CC[C@@H](c4ccccc4)N2C3=O)cn1 (stereo partly drawn) [Example 8.2, 5-{[(5′S,7a′R)-3′-oxo-5′-phenyltetrahydro-3′H-spiro[cyclobutane-1,2′-pyrrolo[2,1-b][1,3]oxazol]-3-yl]oxy}pyridine-2-carbonitrile] | 251 |
| O=C1N2C(CC[C@H]2c2cnccn2)OC12CC(OCc1cnc3nccn3c1)C2 (stereo partly drawn) [Example 18.94, (5′S)-3-[(imidazo[1,2-a]pyrimidin-6-yl)methoxy]-5′-(pyrazin-2-yl)tetrahydro-3′H-spiro[cyclobutane-1,2′-pyrrolo[2,1-b][1,3]oxazol]-3′-one] | 283 |
| CC1(Oc2cc(C(N)=O)ncn2)CC2(C1)O[C@@H]1CC[C@@H](c3cc(F)cc(F)c3)N1C2=O (stereo partly drawn) [Example 5.2, 6-(((5′S,7a′R)-5′-(3,5-difluorophenyl)-3-methyl-3′-oxotetrahydro-3′H-spiro[cyclobutane-1,2′-pyrrolo[2,1-b]oxazol]-3-yl)oxy)pyrimidine-4-carboxamide] | 121 |
| O=C1N2C(CC[C@H]2c2cnccn2)OC12CC(OCc1ccc(C(F)F)cn1)C2 (stereo partly drawn) [Example 18.11, (5′S)-3-{[5-(difluoromethyl)pyridin-2-yl]methoxy}-5′-(pyrazin-2-yl)tetrahydro-3′H-spiro[cyclobutane-1,2′-pyrrolo[2,1-b][1,3]oxazol]-3′-one] | 89 |
| O=C1N2[C@@H](CC[C@H]2c2ccc(F)cc2)O[C@]12C[C@H](Oc1cncc(F)c1)C2 [Example 9.48, (1r,3R,5′S,7a′R)-5′-(4-fluorophenyl)-3-[(5-fluoropyridin-3-yl)oxy]tetrahydro-3′H-spiro[cyclobutane-1,2′-pyrrolo[2,1-b][1,3]oxazol]-3′-one] | 20 |
| O=C1N2C(CC[C@H]2c2cnccn2)OC12CC(OCc1cnc3nncn3c1)C2 (stereo partly drawn) [Example 18.2, (5′S)-5′-(pyrazin-2-yl)-3-[([1,2,4]triazolo[4,3-a]pyrimidin-6-yl)methoxy]tetrahydro-3′H-spiro[cyclobutane-1,2′-pyrrolo[2,1-b][1,3]oxazol]-3′-one] | 66 |
| O=C1N2[C@@H](CC[C@H]2c2cc(F)cc(F)c2)O[C@]12C[C@@H](Oc1cc(F)ncn1)C2 [Example 9.10, (1s,3S,5′S,7a′R)-5′-(3,5-difluorophenyl)-3-((6-fluoropyrimidin-4-yl)oxy)tetrahydro-3′H-spiro[cyclobutane-1,2′-pyrrolo[2,1-b]oxazol]-3′-one] | 35 |
| N#Cc1cccc(OC2CC3(C2)O[C@@H]2CC[C@@H](c4cnccn4)N2C3=O)c1 (stereo partly drawn) [Example 19.3, 3-{[(5′S,7a′R)-3′-oxo-5′-(pyrazin-2-yl)tetrahydro-3′H-spiro[cyclobutane-1,2′-pyrrolo[2,1-b][1,3]oxazol]-3-yl]oxy}benzonitrile] | 20 |
| O=C1N2[C@@H](CC[C@H]2c2cnccn2)OC12CC(OCC1CCC1)C2 (single isomer, unassigned) [Example 23.1, (5′S,7a′R)-3-(cyclobutylmethoxy)-5′-(pyrazin-2-yl)tetrahydro-3′H-spiro[cyclobutane-1,2′-pyrrolo[2,1-b]oxazol]-3′-one] | 460 |
| Cn1nccc1-c1cc(O[C@H]2C[C@@]3(C2)O[C@@H]2CC[C@@H](c4cc(F)cc(F)c4)N2C3=O)ncn1 [Example 9.55, (5′S,7a′R)-5′-(3,5-difluorophenyl)-3-((6-(1-methyl-1H-pyrazol-5-yl)pyrimidin-4-yl)oxy)tetrahydro-3′H-spiro[cyclobutane-1,2′-pyrrolo[2,1-b]oxazol]-3′-one] | 13 |
| O=C1N2C(CC[C@H]2c2cnccn2)OC12CC(OCc1cnn(-c3ccncc3)c1)C2 (stereo partly drawn) [Example 18.52, (5′S)-5′-(pyrazin-2-yl)-3-{[1-(pyridin-4-yl)-1H-pyrazol-4-yl]methoxy}tetrahydro-3′H-spiro[cyclobutane-1,2′-pyrrolo[2,1-b][1,3]oxazol]-3′-one] | 96 |
| O=C1N2C(CC[C@H]2c2cnccn2)OC12CC(OCc1cc3ncccc3s1)C2 (stereo partly drawn) [Example 18.43, (5′S)-5′-(pyrazin-2-yl)-3-[(thieno[3,2-b]pyridin-2-yl)methoxy]tetrahydro-3′H-spiro[cyclobutane-1,2′-pyrrolo[2,1-b][1,3]oxazol]-3′-one] | 6 |
| O=C1N2C(CC[C@H]2c2cnccn2)OC12CC(OCc1ccc3scnc3c1)C2 (stereo partly drawn) [Example 18.61, (5′S)-3-[(1,3-benzothiazol-5-yl)methoxy]-5′-(pyrazin-2-yl)tetrahydro-3′H-spiro[cyclobutane-1,2′-pyrrolo[2,1-b][1,3]oxazol]-3′-one] | 37 |
| COc1ccc(COC2CC3(C2)OC2CC[C@@H](c4cnccn4)N2C3=O)cn1 (stereo partly drawn) [Example 18.70, (5′S)-3-[(6-methoxypyridin-3-yl)methoxy]-5′-(pyrazin-2-yl)tetrahydro-3′H-spiro[cyclobutane-1,2′-pyrrolo[2,1-b][1,3]oxazol]-3′-one] | 150 |
| O=C1N2C(CC[C@H]2c2cnccn2)OC12CC(OCc1ccccc1-n1cccn1)C2 (stereo partly drawn) [Example 18.102, (5′S)-5′-(pyrazin-2-yl)-3-{[2-(1H-pyrazol-1-yl)phenyl]methoxy}tetrahydro-3′H-spiro[cyclobutane-1,2′-pyrrolo[2,1-b][1,3]oxazol]-3′-one] | 736 |
| O=C1N2[C@@H](CC[C@H]2c2cnccn2)OC12CC(Oc1ccc(F)c(F)c1)C2 (stereo partly drawn) [Example 19.5, (5′S,7a′R)-3-(3,4-difluorophenoxy)-5′-(pyrazin-2-yl)tetrahydro-3′H-spiro[cyclobutane-1,2′-pyrrolo[2,1-b][1,3]oxazol]-3′-one] | 11 |
| Cc1ccc(OC2CC3(C2)O[C@@H]2CC[C@@H](c4ccn(C)n4)N2C3=O)cn1 (stereo partly drawn) [Example 19.7, (5′S,7a′R)-5′-(1-methyl-1H-pyrazol-3-yl)-3-[(6-methylpyridin-3-yl)oxy]tetrahydro-3′H-spiro[cyclobutane-1,2′-pyrrolo[2,1-b][1,3]oxazol]-3′-one] | 531 |
| O=C1N2C(CC[C@H]2c2cnccn2)OC12CC(OCc1cnn(-c3ccncc3)c1)C2 (stereo partly drawn) [Example 18.101] | 367 |
| O=C1N2C(CC[C@H]2c2cnccn2)OC12CC(OCc1ccc(Cn3ccnc3)cc1)C2 (stereo partly drawn) [Example 18.25, (5′S)-3-({4-[(1H-imidazol-1-yl)methyl]phenyl}methoxy)-5′-(pyrazin-2-yl)tetrahydro-3′H-spiro[cyclobutane-1,2′-pyrrolo[2,1-b][1,3]oxazol]-3′-one] | 48 |
| Cc1cc(OC2CC3(C2)O[C@@H]2CC[C@@H](c4ccccc4)N2C3=O)ccc1F (stereo partly drawn) [Example 8.13, (5′S,7a′R)-3-(4-fluoro-3-methylphenoxy)-5′-phenyltetrahydro-3′H-spiro[cyclobutane-1,2′-pyrrolo[2,1-b][1,3]oxazol]-3′-one] | 62 |
| N#Cc1ccc(F)c(OC2CC3(C2)O[C@@H]2CC[C@@H](c4ccccc4)N2C3=O)c1 (stereo partly drawn) [Example 8.3, 4-fluoro-3-{[(5′S,7a′R)-3′-oxo-5′-phenyltetrahydro-3′H-spiro[cyclobutane-1,2′-pyrrolo[2,1-b][1,3]oxazol]-3-yl]oxy}benzonitrile] | 20 |
| O=C1N2C(CC[C@H]2c2cnccn2)OC12CC(OCc1cc(Cl)ccc1-c1cnco1)C2 (stereo partly drawn) [Example 18.33, (5′S)-3-{[5-chloro-2-(1,3-oxazol-5-yl)phenyl]methoxy}-5′-(pyrazin-2-yl)tetrahydro-3′H-spiro[cyclobutane-1,2′-pyrrolo[2,1-b][1,3]oxazol]-3′-one] | 43 |
| O=C1N2[C@@H](CC[C@H]2c2cnccn2)OC12CC(Oc1cccnc1)C2 (stereo partly drawn) [Example 19.21, (5′S,7a′R)-5′-(pyrazin-2-yl)-3-[(pyridin-3-yl)oxy]tetrahydro-3′H-spiro[cyclobutane-1,2′-pyrrolo[2,1-b][1,3]oxazol]-3′-one] | 27 |
| O=C1N2[C@@H](CC[C@H]2c2cnccn2)O[C@]12C[C@@H](Oc1cccnc1)C2 [Example 19.1, (5′S,7a′R)-5′-(pyrazin-2-yl)-3-(pyridin-3-yloxy)tetrahydro-3′H-spiro[cyclobutane-1,2′-pyrrolo[2,1-b]oxazol]-3′-one] | 31 |

Reference: patent publication US20250154173A1 (Merck Sharp & Dohme LLC, priority 2023, published 2025)
